Where two headings read alike, the source gives them in different places.
Legend:
[1] = system: PTZ-induced seizure activity in zebrafish larvae; experiment: Zebrafish PTZ-induced seizure model; type: in vivo; conditions: for minimal effective concentration / anti-seizure activity: 7 dpf larvae; for minimal effective concentration: 1 hr pre-treatment, 10 mM PTZ, read-out: Anti-seizure activity: lowest tested dose with significant difference vs PTZ-only group; for inhibition in vivo at 5 µM / inhibition in vivo at 10 µM: read-out: reduction of PTZ-induced locomotor activity; for anti-seizure activity: PTZ
Experimental: The zebrafish PTZ-induced seizure model was used to determine the most promising compounds' in vivo efficacy. Zebrafish larvae (7 dpf) were treated with the compound for 1 hr prior to inducing seizures with PTZ. As established by previous larval zebrafish anti-seizure studies (Rahn et al., 2014; Hansen et al., 2004; Baraban et al., 2005), total distance traveled by each fish after seizure induction was measured and used as a proxy for seizure activity. Following collection of locomotor data, observation of a startle response and visual inspection for abnormal morphology confirmed that alterations in swim activity were not caused by compound toxicity.
We induced seizures in 7 dpf zebrafish larvae by the addition of […] PTZ as originally developed by Baraban et al., 2005. In a 48-well plate, one 7-dpf zebrafish was added per well. Larvae were dosed with each compound at a sub-lethal dose 1 hr prior to PTZ treatment. Two control rows were included with each experiment—tank water only control and PTZ only. Seizures were induced by adding PTZ to wells to yield a final concentration of 10 mM. After 5 min, the plate was transferred to the Daniovision instrument (Noldus Information Technology) and the chamber light was turned on. After 2 min, MediaRecorder (Noldus) was used to record video for 15 min. A small number of videos were acquired at 25 frames per second, but the majority of data were acquired at 60 frames per second. […] Ethovision XT software (Noldus) was used to track the fish movement from the video images in order to calculate the total distance traveled over 15 min. All experimental comparisons were made between animals from the same clutch.
(§1) Statistical analyses were performed with GraphPad Prism 6 software. For the in vitro HT22 oxytosis assay, dose-response data were fit using GraphPad Prism's log(inhibitor) vs normalized response-variable slope parameters to determine EC50 values and 95% confidence intervals. For the zebrafish locomotive anti-seizure activity data, multiple comparisons were made using a one-way analysis of variance (ANOVA) with a Kruskal-Wallis Test, followed by the Dunn's Method to determine significant differences between all pairs or between control and experimental groups using the Dunn Method for Joint Ranking. Differences were considered statistically significant when p<0.05. Data from zebrafish experiments are represented as scatter dot plots of individual measurements, with means±standard deviation indicated by bars.

HT22 cells = experiment: HT22 oxytosis (glutamate-induced cell death) neuroprotection assay; type: cell-based, mouse; conditions: 10 mM Glu
Experimental: The HT22 murine hippocampal cell system was chosen as an initial phenotypic screen for neuroprotective efficacy (Andreux et al., 2013; Andreux et al., 2014; Ohlow et al., 2017; Schubert and Maher, 2012). HT22 cells exposed to high extracellular Glu ([…]) undergo oxytosis, a non-apoptotic programmed cell death involving glutathione (GSH) depletion followed by ROS accumulation, oxidative damage, and a cytotoxic signaling cascade (Tan et al., 2001). Glu blocks the −xC cystine antiporter, causing (Tan et al., 2001) cells to accumulate severe oxidative stress, mitochondrial depolarization, disrupted mitochondrial morphology, and Ca^2+ influx (Tan et al., 2001; Yang et al., 2011; Cheng et al., 2013—cellular events that may occur in neurological diseases, including epilepsy. Thus, the immortalized HT22 cell line is a well-established model of neuronal oxidative stress (Sagara and Schubert, 1998; Matsumoto et al., 1996; Albrecht et al., 2010; Ha and Park, 2006; van Leyen et al., 2005; Tobaben et al., 2011), and a verified model of neurodegeneration to screen for potential neuroprotective drugs (Albrecht et al., 2010; van Leyen et al., 2008; Lewerenz et al., 2009; Lewerenz et al., 2003).
Consistent with that work, most of the 2-amino compounds achieved protection of HT22 cells against glutamate-induced oxytosis in the nM to μM range. […] Neuroprotection based on relative cell viability compared to +Glu and −Glu control cells was measured.
The HT22 neuronal cell line is a subclone of HT4, derived from the mouse hippocampus (Morimoto and Koshland, 1990). […] The HT22 cells used in this study were kindly provided by Dr. David Schubert (The Salk Institute for Biological Studies, La Jolla, CA, USA). The cells were grown in Dulbecco's Modified Eagle's Medium (DMEM/high glucose) supplemented with 10% fetal bovine serum (Hyclone) and 5 mL of antibiotic-antimycotic (Amphotericin B, Penicillin, and Streptomycin; Invitrogen) at 37° C. in 5% CO2.
HT-22 cells were seeded onto 96-well plates at 2.5×10^3 cells per well in 75 μL of medium and maintained at 37° C. in 5% CO2 overnight prior to the initiation of experimental treatments. For glutamate toxicity testing, cells were subsequently treated with 25 μL of medium containing glutamate (monosodium glutamate, Sigma, 1 M stock concentration in media, to achieve a final concentration of 10 mM) plus compound (stock in DMSO) and maintained at 37° C. in 5% CO2 for 24 hr. CellTiter-Blue® (resazurin cell viability assay reagent) was then added to each well at a final concentration of 0.125 mg/mL. The mixture was allowed to incubate for 2-4 hr until sufficient color change occurred. Cell viability was measured as a function of resorufin fluorescence intensity using a Tecan M200 Pro spectrophotometer, 560 nm/590 nm (excitation/emission). Cell viability was calculated as a percentage compared with untreated controls. EC50s were determined using GraphPad Prism's “log(inhibitor) vs. normalized response-Variable slope” function. Morphology of HT22 cells following treatments was determined by phase-contrast microscopy.
as §1

Zebrafish larvae = experiment: In vivo toxicology in zebrafish larvae; conditions: 7 dpf larvae, 5-20 μM, observed 1, 5 and 24 hr
Experimental: Zebrafish larvae, 7 days post-fertilization (dpf), were exposed to compounds at 20, 15, 10, and 5 μM, six larvae per compound. Animals were observed 1, 5, and 24 hr after dosing for overt toxicity (altered survival, morbidity, morphological deformity). Heart rate, behavior, and startle response were monitored at each time point.
Zebrafish (AB strain) were obtained from the Zebrafish International Resource Center (supported by P40 RR012546 from NIH—NCRR). Zebrafish were maintained and crossed according to standard methods (Westerfield, 2000). Fertilized eggs were collected and placed in E3 embryo medium and positioned in an incubator set at 28.5° C. with a 14/10-hr light/dark cycle (Kimmel et al., 1995). To determine the lethal dose of each compound, 96-well plates containing one zebrafish (7 days post-fertilization, dpf) per well in 100 μL of tank water were used. 100 μL of each compound (0.5-15 μM) was added to each well for 12 animals (one row) for a final volume of 200 μL. One row of larvae was used as dimethyl sulfoxide (DMSO)-only controls. […] All zebrafish studies were approved by the Medical University of South Carolina Institutional Animal Care and Use Committee (#180278) and performed in accordance with the guidelines.
Using a 96-well plate, 7 dpf zebrafish were placed one per well with 100 μL of tank water. 100 μL of each compound was then added to each well for 12 animals (one row) for a final volume of 200 μL. One row of zebrafish larvae was used as DMSO only controls.

[2] = Mus musculus, HT-22, 24 h, HT22 cells, 24 hr, 95% CI in parentheses
[3] = Mus musculus, HT-22, HT22 cells
[4] = HT22 cells, 24 hr, 95% CI in parentheses

| Compound | minimal effective concentration ([1]; Danio rerio) [µM] | EC50 (HT22 cells; [2]) [nM] | other results |
| --- | --- | --- | --- |
| CC#CCC(CO)NC1=CC(=O)c2ccccc2C1=O (racemic) [Compound 18, Rac-2-((1-hydroxyhex-4-yn-2-yl)amino)naphthalene-1,4-dione] | > 10 | 2170 | EC50 (HT22 cells; [3]): > 2000 nM |
| C#CCC(C)NC1=CC(=O)c2ccccc2C1=O (racemic) [Compound 20, Rac-2-(pent-4-yn-2-ylamino)naphthalene-1,4-dione] | > 10 | 3690 | EC50 (HT22 cells; [3]): > 2000 nM |
| C#CCC(NC1=CC(=O)c2ccccc2C1=O)c1ccccc1 (racemic) [Compound 21, Rac-2-((1-phenylbut-3-yn-1-yl)amino)naphthalene-1,4-dione] | 5 | 6150 | – |
| C=CCC#CCNC1=CC(=O)c2ccccc2C1=O [Compound 6, 2-(Hex-5-en-2-yn-1-ylamino)naphthalene-1,4-dione] | 10 | 2640 | inhibition in vivo at 5 µM ([1]; Danio rerio): ~65%; inhibition in vivo at 10 µM ([1]; Danio rerio): 85% |
| CN(C)CC#CCNC1=CC(=O)c2ccccc2C1=O [Compound 7, 2-((4-(Dimethylamino)but-2-yn-1-yl)amino)naphthalene-1,4-dione] | – | – | HT22 protection (HT22 cells; HT22 cells): poor protection; overt toxicity observation (Zebrafish larvae): lethal at most concentrations |
| O=C1C=C(NCC#Cc2cccc(F)c2)C(=O)c2ccccc21 [Compound 9, 2-((3-(3-Fluorophenyl)prop-2-yn-1-yl)amino)naphthalene-1,4-dione] | – | 216 | – |
| COc1cccc(C#CCNC2=CC(=O)c3ccccc3C2=O)c1 [Compound 10, 2-((3-(3-Methoxyphenyl)prop-2-yn-1-yl)amino)naphthalene-1,4-dione] | > 20 | 215 | – |
| O=C1C=C(NCC#Cc2cccnc2)C(=O)c2ccccc21 [Compound 11, 2-((3-(Pyridin-3-yl)prop-2-yn-1-yl)amino)naphthalene-1,4-dione] | – | 290 | – |
| O=C1C=C(NCC#Cc2ccc(C(F)(F)F)cc2)C(=O)c2ccccc21 [Compound 12, 2-((3-(4-(Trifluoromethyl)phenyl)prop-2-yn-1-yl)amino)naphthalene-1,4-dione] | > 10 | ~500 | minimal effective concentration [1]: >10 µM; EC50 (HT22 cells; [4]): 566 nM |
| O=C1C=C(NCC#Cc2cccc(C(F)(F)F)c2)C(=O)c2ccccc21 [Compound 13, 2-((3-(3-(Trifluoromethyl)phenyl)prop-2-yn-1-yl)amino)naphthalene-1,4-dione] | > 10 | ~500 | minimal effective concentration [1]: >10 µM; EC50 (HT22 cells; [4]): 584 nM |
| CC(C)=CCC/C(C)=C/CNC1=CC(=O)c2ccccc2C1=O [Compound 22, (E)-2-((3,7-Dimethylocta-2,6-dien-1-yl)amino)naphthalene-1,4-dione] | 20 | 9220 | anti-seizure activity [1]: activity at 20 and 40 μM that resulted from sedation; EC50 (HT22 cells; HT22 cells): ~9000 nM; EC50 (HT22 cells; [3]): ~9200 nM |
| CC(C)=CCC/C(C)=C/CNC1=C(Br)C(=O)c2ccccc2C1=O [Compound 23, (E)-2-Bromo-3-((3,7-dimethylocta-2,6-dien-1-yl)amino)naphthalene-1,4-dione] | > 10 | 133 | anti-seizure activity [1]: ineffective |
| CC(C)=CCC/C(C)=C/CNC1=C(C)C(=O)c2ccccc2C1=O [Compound 24, (E)-2-((3,7-Dimethylocta-2,6-dien-1-yl)amino)-3-methylnaphthalene-1,4-dione] | > 10 | 2740 | anti-seizure activity [1]: ineffective; EC50 (HT22 cells; [3]): ~2700 nM |
| CCCCOC1=CC(=O)c2ccccc2C1=O [Compound 26, 2-Butoxynaphthalene-1,4-dione] | – | – | EC50 (HT22 cells; Mus musculus, HT-22, HT22 cells, 24 hr, 95% CI in parentheses): 78 nM |
| O=C1C=C(OCc2ccccc2)C(=O)c2ccccc21 [Compound 27, 2-(Benzyloxy)naphthalene-1,4-dione] | – | 168 | – |
| CC#CCOC1=CC(=O)c2ccccc2C1=O [Compound 28, 2-(But-2-yn-1-yloxy)naphthalene-1,4-dione] | – | 168 | – |
| CCC#CCOC1=CC(=O)c2ccccc2C1=O [Compound 29, 2-(Pent-2-yn-1-yloxy)naphthalene-1,4-dione] | ≤ 5 | ~300 | inhibition in vivo at 5 µM ([1]; Danio rerio): 60%; inhibition in vivo at 10 µM ([1]; Danio rerio): 53%; EC50 (HT22 cells; [4]): 307 nM |
| CCCC#CCOC1=CC(=O)c2ccccc2C1=O [Compound 30, 2-(Hex-2-yn-1-yloxy)naphthalene-1,4-dione] | 5 | 249 | inhibition in vivo at 5 µM ([1]; Danio rerio): 53%; inhibition in vivo at 10 µM ([1]; Danio rerio): 68% |
| CCCCC#CCOC1=CC(=O)c2ccccc2C1=O [Compound 31, 2-(Hept-2-yn-1-yloxy)naphthalene-1,4-dione] | 10 | 76.1 | anti-seizure activity [1]: reduced swim distance to control levels; inhibition in vivo at 5 µM ([1]; Danio rerio): 48%; toxic effects during PTZ-induced seizure experiments ([1]; lack of survival or behavioral impairments): higher-than-normal occurrences of toxic effects |

Reference: US11771685B2, “Compounds for the treatment of neurological or mitochondrial diseases” (MUSC FOUNDATION FOR RESEARCH DEVELOPMENT, priority 2018, dated 2023)
